# Laboratory results from patent publication US20230128304A1, “BENZIMIDAZOLE COMPOUND FOR THE TREATMENT OF METABOLIC DISORDERS” (ACHÉ LABORATÓRIOS FARMACÊUTICOS S.A., priority 2020, published 2023).
# Columns and labels:
# [1] = test system: SD rats maintained on a high fat diet (HFD); experiment: Body weight and food intake in HFD diet-induced obesity model; assay type: in vivo, Sprague Dawley (SD) rats; conditions: for Daily food intake compared with HFD Vehicle: compound II apart from isolated changes
# Protocol: The benzimidazole compound of formula I, the comparative compound of formula II, and dapagliflozin were administered to animals fed HFD. Vehicle was administered to animals fed normal chow or HFD. Data is shown as adjusted means—SEM of n=9-10 animals (BW and BW gain) or n=5 cages (FI and average daily FI) per group. Data was analyzed by ANCOVA with BW on day 1 (A and C) or average FI during the baseline period (B and D) as covariate, excluding the Chow Vehicle group. Treatment groups were compared with HFD Vehicle by separate Williams' tests (compounds I or II) or multiple t tests (dapagliflozin) and considered statistically significant if p<0.05. Statistical significance is denoted as “a”, “b”, “c”, “d” and “e” for HFD groups treated respectively with dapagliflozin, compound II at 10 mg/kg, compound II at 30 mg/kg, compound I at 10 mg/kg and compound I at 30 mg/kg. # (p=0.051) and & (p=0.098) mean trends toward significance in comparisons with HFD Vehicle.
# J Endocrinol. 234(3):255-267; Devenny J J et al. (2012). Weight loss induced by chronic dapagliflozin treatment is attenuated by compensatory hyperphagia in diet-induced obese (DIO) rats. Obesity. 20: 1645-1652.).
# (§1) In the HFD model, animals were initially maintained on a HFD for 4 weeks to induce a significant body weight (BW) gain before treatment was initiated. […] Two vehicle-treated control groups, fed either normal chow (Chow Vehicle) or HFD (HFD Vehicle), were also included.
# [2] = test system: SD rats maintained on a high fat diet (HFD); experiment: Weight of selected tissues in HFD model; assay type: in vivo, Sprague Dawley (SD) rats
# Protocol: In the HFD model, animals were initially maintained on a HFD for 4 weeks to induce a significant body weight (BW) gain before treatment was initiated. […] Two vehicle-treated control groups, fed either normal chow (Chow Vehicle) or HFD (HFD Vehicle), were also included. The effects on body composition and on the weight of selected tissues (brown fat pad, epididymal fat pad, liver or gastrocnemius muscle) were assessed after the study was terminated (days 65/66). […] Body composition was determined using FoodScan™ near-infrared analyzer analysis, which assessed water, protein and fat content and the final carcass weight (Table 4).
# [3] = test system: SD rats maintained on a high fat diet (HFD); experiment: Liver histopathology (NAFLD activity score) in HFD model; assay type: in vivo, Sprague Dawley (SD) rats
# Protocol: (§2) The parameters were assessed following a chronic oral treatment with compound I at 10 and 30 mg/kg, dapagliflozin at 5 mg/kg, or vehicle to animals receiving HFD. Vehicle was also administered to animals receiving normal chow. The liver triglycerides were quantified using Cobas C111 clinical analyzer TRIGL 04657594 190. Glycogen quantification in liver samples was performed using commercial kits (Thermo BioVision, Glycogen Assay Kit, K646-100). Data is shown as means±SEM (A-D) or raw data including mean±SEM (E-H), n=9-10. The statistical analysis of liver triglycerides (A-B) and glycogen (C-D) was performed by general linear model of log transformed data (triglycerides only) with treatment and cohort as factors and termination order and BW on day 1 as covariates. Treatment groups were compared with HFD Vehicle by separate Williams' tests (compound I) or multiple t tests (dapagliflozin) and statistically significant differences are denoted by * (p<0.05), ** (p<0.01) and *** (p<0.001). Comparisons against Chow Vehicle were performed by multiple t tests (HFD Vehicle and dapagliflozin groups) or Dunnett's test (compound I) and statistically significant differences are denoted by † (p<0.05), †† (p<0.01) and ††† (p<0.001). Analysis of liver histopathology data (E-H) was done by exact Wilcoxon rank sum test. Statistical differences are denoted by * (p<0.05) in comparison with HFD Vehicle and by † (p<0.05), †† (p<0.01) and ††† (p<0.001) when compared with Chow Vehicle.
# as §1
# Liver was also assessed for NAFLD by histopathological analysis (FIGS. 3E-H). Samples were sectioned, stained and scored following a method previously described (Kleiner D E et al. (2005). Design and validation of a histological scoring system for nonalcoholic fatty liver disease. Hepatology. 41(6):1313-21; Nishida T et al. (2013). Spontaneous onset of nonalcoholic steatohepatitis and hepatocellular carcinoma in a mouse model of metabolic syndrome. Lab Invest. 93(2):230-41). The parameters analyzed were: steatosis (0-3), lobular inflammation (0-3) and hepatocellular ballooning (0-2). The total “NAFLD activity score” (NAS) score was calculated as the sum of all parameters (0-8). The liver of Chow Vehicle animals had no pathology scores (zero) for steatosis, lobular inflammation, hepatocellular ballooning and no score for total NAS.
# [4] = test system: SD rats maintained on a high fat diet (HFD); experiment: Body composition (FoodScan near-infrared analyzer) in HFD model; assay type: in vivo, Sprague Dawley (SD) rats; conditions: for Fat / Final carcass weight / Protein / Water: adjusted means ± SEM; for Body composition parameters (water, protein, fat content, final carcass weight) against HFD Vehicle: 10 and 30 mg/kg
# Protocol: as §1
# The effects on body composition and on the weight of selected tissues (brown fat pad, epididymal fat pad, liver or gastrocnemius muscle) were assessed after the study was terminated (days 65/66). The weights of tissues were analyzed in two ways: i) BW on day 1 was used as a covariate to correct for differences in the BW at the start of the study or ii) the terminal BW (days 65/66) was used as a covariate to correct for changes due to weight loss (Table 3). […] Body composition was determined using FoodScan™ near-infrared analyzer analysis, which assessed water, protein and fat content and the final carcass weight (Table 4).
# [5] = test system: SD rats maintained on a high fat diet (HFD); experiment: Plasma glucose, insulin and HOMA-IR in HFD model; assay type: in vivo, Sprague Dawley (SD) rats
# Protocol: as §1, with “Vehicle was administered to animals fed normal chow or HFD. The parameters were assessed on day 51. […] In” for “In”
# [6] = test system: SD rats maintained on a high fat diet (HFD); experiment: Liver triglycerides and glycogen in HFD model; assay type: in vivo, Sprague Dawley (SD) rats; conditions: 5 mg/kg
# Protocol: as §2, with “Comparisons against Chow Vehicle were performed by multiple t tests (HFD Vehicle and dapagliflozin groups) or Dunnett's test (compound I) and statistically significant differences are denoted by † (p<0.05), †† (p<0.01) and ††† (p<0.001). Analysis of liver histopathology data (E-H) was done by exact Wilcoxon rank sum test. Statistical differences are denoted by * (p<0.05) in comparison with HFD Vehicle and by † (p<0.05), †† (p<0.01) and ††† (p<0.001) when compared with Chow Vehicle.” left out
# As only the benzimidazole derivative of formula I according to the present invention, but not the comparative benzimidazole compound II, impacted BW gain, liver weight, plasma glucose levels and HOMA-IR in the HFD model, specific effects of compound I in the liver of the animals were evaluated in comparison with dapagliflozin and control groups. […]
# [7] = target: MT1 receptor (Homo sapiens, UniProt P48039); experiment: cell-based; conditions: read-out: MT1 agonism I.A. (intrinsic activity)
# [8] = 10 mg/kg, data adjusted for BW on day 1, mean ± SEM, in g (unit assumed)
# [9] = 10 mg/kg, data adjusted for BW on day 65/66, mean ± SEM, in g (unit assumed)
# [10] = 30 mg/kg, data adjusted for BW on day 1, mean ± SEM, in g (unit assumed)
# [11] = 30 mg/kg, data adjusted for BW on day 65/66, mean ± SEM, in g (unit assumed)
# [12] = 5 mg/kg p.o., day 51 after 4-hour fast, p<0.001
# [13] = 5 mg/kg, data adjusted for BW on day 1, mean ± SEM, in g (unit assumed)
# [14] = 5 mg/kg, data adjusted for BW on day 65/66, mean ± SEM, in g (unit assumed)
# Sequence of MT1 receptor (P48039 whole entry): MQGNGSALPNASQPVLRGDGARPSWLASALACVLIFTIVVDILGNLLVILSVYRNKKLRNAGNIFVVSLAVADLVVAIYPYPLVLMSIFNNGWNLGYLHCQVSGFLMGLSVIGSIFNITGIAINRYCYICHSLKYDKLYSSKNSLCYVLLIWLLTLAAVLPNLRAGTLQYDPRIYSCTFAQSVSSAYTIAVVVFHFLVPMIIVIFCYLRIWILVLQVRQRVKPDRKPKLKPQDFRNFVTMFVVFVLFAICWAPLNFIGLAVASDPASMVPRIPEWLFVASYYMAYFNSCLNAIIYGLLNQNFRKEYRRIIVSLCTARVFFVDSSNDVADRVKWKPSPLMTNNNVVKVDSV
structure (smiles),measurement,setting,value
"COc1cc2c(cc1Cl)nc(OC)n2CCNC(C)=O [Compound of formula I, N-[2-(5-Chloro-2,6-dimethoxy-benzoimidazol-1-yl)-ethyl]-acetamide]",Body weight (BW) compared with HFD Vehicle,"[1]; 10 and 30 mg/kg p.o., days 13 to 32, p<0.05",significantly reduced body weight (BW)
same,BW gain from day 1 to 57 compared with HFD Vehicle,"[1]; 10 and 30 mg/kg p.o., p=0.098",trend towards reduced BW gain
same,Daily food intake compared with HFD Vehicle,[1]; 10 and 30 mg/kg,did not affect
same,Liver weight,"[2]; 10 mg/kg, data adjusted for BW on day 1, mean ± SEM",17.7 ± 0.8
same,Brown adipose tissue weight,[2]; [8],0.700 ± 0.091
same,Epididymal fat pads weight,[2]; [8],13.1 ± 1.5
same,Gastrocnemius weight,[2]; [8],3.30 ± 0.14
same,Brown adipose tissue weight,[2]; [9],0.719 ± 0.084
same,Epididymal fat pads weight,[2]; [9],13.9 ± 1.1
same,Gastrocnemius weight,[2]; [9],3.32 ± 0.15
same,Liver weight,[2]; [9],18.5 ± 0.5
same,Liver weight,"[2]; 30 mg/kg, data adjusted for BW on day 1, mean ± SEM",18.6 ± 0.9
same,Brown adipose tissue weight,[2]; [10],0.801 ± 0.066
same,Epididymal fat pads weight,[2]; [10],13.9 ± 1.0
same,Gastrocnemius weight,[2]; [10],3.35 ± 0.10
same,Brown adipose tissue weight,[2]; [11],0.808 ± 0.062
same,Epididymal fat pads weight,[2]; [11],14.2 ± 1.2
same,Gastrocnemius weight,[2]; [11],3.36 ± 0.10
same,Liver weight,[2]; [11],18.9 ± 0.5
same,Liver weight compared to HFD Vehicle (in words),"[2]; both groups (10 and 30 mg/kg), corrected by the initial BW, p=0.12",trend toward liver weight reduction
same,Steatosis score change compared to the HFD group,"[3]; 30 mg/kg p.o., p<0.05",−57%
same,Total NAS value versus HFD Vehicle,"[3]; 30 mg/kg, p=0.126",trend toward significance
same,Lobular inflammation score,"[3]; 30 mg/kg, no longer significantly different from the Chow Vehicle control",reduced
same,Fat,[4]; 10 mg/kg,20.5 ± 1.5 %
same,Final carcass weight,[4]; 10 mg/kg,561.7 ± 13.0^ g
same,Protein,[4]; 10 mg/kg,19.7 ± 0.4%
same,Water,[4]; 10 mg/kg,56.1 ± 1.2 %
same,Fat,[4]; 30 mg/kg,20.0 ± 1.7 %
same,Final carcass weight,[4]; 30 mg/kg,584.0 ± 13.6^ g
same,Protein,[4]; 30 mg/kg,19.6 ± 0.5 %
same,Water,[4]; 30 mg/kg,56.5 ± 1.4 %
same,"Body composition parameters (water, protein, fat content, final carcass weight) against HFD Vehicle",[4],No effect
CCOc1ccc(Cc2cc([C@@H]3O[C@H](CO)[C@@H](O)[C@H](O)[C@H]3O)ccc2Cl)cc1 [Dapagliflozin],HOMA-IR change compared to HFD Vehicle,[5]; [12],−66.7%
same,Plasma glucose change compared to HFD Vehicle,[5]; [12],−21.6%
same,Plasma insulin change compared to HFD Vehicle,[5]; [12],−56.7%
same,Liver glycogen concentration compared to HFD Vehicle (in words),[6],No effect
same,Liver glycogen content compared to HFD Vehicle (in words),[6],No effect
same,Brown adipose tissue weight,[2]; [13],0.679 ± 0.047
same,Epididymal fat pads weight,[2]; [13],12.2 ± 0.7
same,Gastrocnemius weight,[2]; [13],3.34 ± 0.09
same,Liver weight,[2]; [13],20.9 ± 0.5
same,Liver weight,"[2]; 5 mg/kg, data adjusted for BW on day 65/66, mean ± SEM",21.6 ± 0.3
same,Brown adipose tissue weight,[2]; [14],0.697 ± 0.050
same,Epididymal fat pads weight,[2]; [14],13.0 ± 0.7
same,Gastrocnemius weight,[2]; [14],3.37 ± 0.09
same,Liver weight change compared to HFD Vehicle,"[2]; 5 mg/kg, data corrected for the terminal BW, p<0.01",+10.8%
same,"Histopathology parameters (steatosis, lobular inflammation, hepatocellular ballooning, NAS) versus HFD Vehicle",[3]; 5 mg/kg,no effect
same,Fat,[4]; 5 mg/kg,16.8 ± 1.3^ %
same,Final carcass weight,[4]; 5 mg/kg,564.5 ± 9.4 g
same,Protein,[4]; 5 mg/kg,20.6 ± 0.4%
same,Water,[4]; 5 mg/kg,58.9 ± 1.0^ %
"CCOc1nc2cc(Cl)c(OC)cc2n1CCCNC(C)=O [Compound of formula II, N-[3-(5-Chloro-2-ethoxy-6-methoxy-benzoimidazol-1-yl)-propyl]-acetamide]",HOMA-IR compared to HFD Vehicle (in words),"[5]; 10 and 30 mg/kg, day 51",did not alter
same,Plasma glucose compared to HFD Vehicle (in words),"[5]; 10 and 30 mg/kg, day 51",did not alter
same,Plasma insulin compared to HFD Vehicle (in words),"[5]; 10 and 30 mg/kg, day 51",did not alter
same,Daily BW gain,[1]; 10 and 30 mg/kg,no significant effects
same,Daily food intake compared with HFD Vehicle,[1]; 10 and 30 mg/kg,did not affect
same,Fat,[4]; 10 mg/kg,20.8 ± 2.3 %
same,Final carcass weight,[4]; 10 mg/kg,587.6 ± 6.3 g
same,Protein,[4]; 10 mg/kg,19.2 ± 0.6 %
same,Water,[4]; 10 mg/kg,56.0 ± 1.8 %
same,Fat,[4]; 30 mg/kg,17.9 ± 2.3 %
same,Final carcass weight,[4]; 30 mg/kg,593.3 ± 11.4 g
same,Protein,[4]; 30 mg/kg,19.8 ± 0.5%
same,Water,[4]; 30 mg/kg,58.4 ± 1.9^ %
same,"Body composition parameters (water, protein, fat content, final carcass weight) against HFD Vehicle",[4],No effect
"COc1ccc2[nH]cc(CCNC(C)=O)c2c1 [Melatonin, N-acetyl-5-methoxytryptamine]",Emax,[7],100%
